Results taken from PubChem BioAssay (NCI).
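Grown in 96-well plates, cells were treated for 48 hours with each compound at five concentrations. Insufficient inhibition: endpoint recorded as highest concentration tested. Definition used: TGI = concentration required for complete inhibition of growth.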

How the values were obtained:
Test in all cases: NCI-60 cell line screen, 48 h
786-0 renal = test system: 786-0 renal
A498 renal = test system: A498 renal
A549 NSCLC = test system: A549 NSCLC
ACHN renal = test system: ACHN renal
BT-549 breast = test system: BT-549 breast
CAKI-1 renal = test system: CAKI-1 renal
CCRF-CEM leukemia = test system: CCRF-CEM leukemia
COLO 205 colon = test system: COLO 205 colon
DU-145 prostate = test system: DU-145 prostate
EKVX NSCLC = test system: EKVX NSCLC
HCC-2998 colon = test system: HCC-2998 colon
HCT-116 colon = test system: HCT-116 colon
HL-60(TB) leukemia = test system: HL-60(TB) leukemia
HOP-62 NSCLC = test system: HOP-62 NSCLC
HOP-92 NSCLC = test system: HOP-92 NSCLC
HS 578T breast = test system: HS 578T breast
HT29 colon = test system: HT29 colon
IGROV1 ovarian = test system: IGROV1 ovarian
K-562 leukemia = test system: K-562 leukemia
KM12 colon = test system: KM12 colon
M14 melanoma = test system: M14 melanoma
MALME-3M melanoma = test system: MALME-3M melanoma
MCF7 breast = test system: MCF7 breast
MDA-MB-231 breast = test system: MDA-MB-231 breast
MDA-N = test system: MDA-N
MOLT-4 leukemia = test system: MOLT-4 leukemia
NCI-H226 lung = test system: NCI-H226 lung
NCI-H23 lung = test system: NCI-H23 lung
NCI-H460 lung = test system: NCI-H460 lung
NCI-H522 lung = test system: NCI-H522 lung
OVCAR-3 ovarian = test system: OVCAR-3 ovarian
OVCAR-4 ovarian = test system: OVCAR-4 ovarian
OVCAR-5 ovarian = test system: OVCAR-5 ovarian
OVCAR-8 ovarian = test system: OVCAR-8 ovarian
PC-3 prostate = test system: PC-3 prostate
RXF 393 renal = test system: RXF 393 renal
SF-268 CNS = test system: SF-268 CNS
SF-295 CNS = test system: SF-295 CNS
SF-539 CNS = test system: SF-539 CNS
SK-MEL-28 melanoma = test system: SK-MEL-28 melanoma
SK-MEL-5 melanoma = test system: SK-MEL-5 melanoma
SK-OV-3 ovarian = test system: SK-OV-3 ovarian
SN12C renal = test system: SN12C renal
SNB-19 CNS = test system: SNB-19 CNS
SNB-75 CNS = test system: SNB-75 CNS
SR leukemia = test system: SR leukemia
SW-620 colon = test system: SW-620 colon
T-47D breast = test system: T-47D breast
TK-10 renal = test system: TK-10 renal
U251 CNS = test system: U251 CNS
UACC-257 melanoma = test system: UACC-257 melanoma
UACC-62 melanoma = test system: UACC-62 melanoma
UO-31 renal = test system: UO-31 renal
HCT-15 colon = test system: HCT-15 colon
LOX IMVI melanoma = test system: LOX IMVI melanoma
MDA-MB-435 = test system: MDA-MB-435
NCI/ADR-RES ovarian = test system: NCI/ADR-RES ovarian
RPMI-8226 leukemia = test system: RPMI-8226 leukemia
SK-MEL-2 melanoma = test system: SK-MEL-2 melanoma

Measured: TGI

CC1C2CC(CC2(C)O)C1(C)C (stereo unspecified)
> 100 µM: 786-0 renal | A498 renal | A549 NSCLC | ACHN renal | BT-549 breast | CAKI-1 renal | CCRF-CEM leukemia | COLO 205 colon | DU-145 prostate | EKVX NSCLC | HCC-2998 colon | HCT-116 colon | HL-60(TB) leukemia | HOP-62 NSCLC | HOP-92 NSCLC | HS 578T breast | HT29 colon | IGROV1 ovarian | K-562 leukemia | KM12 colon | M14 melanoma | MALME-3M melanoma | MCF7 breast | MDA-MB-231 breast | MDA-N | MOLT-4 leukemia | NCI-H226 lung | NCI-H23 lung | NCI-H460 lung | NCI-H522 lung | OVCAR-3 ovarian | OVCAR-4 ovarian | OVCAR-5 ovarian | OVCAR-8 ovarian | PC-3 prostate | RXF 393 renal | SF-268 CNS | SF-295 CNS | SF-539 CNS | SK-MEL-28 melanoma | SK-MEL-5 melanoma | SK-OV-3 ovarian | SN12C renal | SNB-19 CNS | SNB-75 CNS | SR leukemia | SW-620 colon | T-47D breast | TK-10 renal | U251 CNS | UACC-257 melanoma | UACC-62 melanoma | UO-31 renal

CC(=O)NC(Cc1ccccc1)NC(=O)O (stereo unspecified)
> 100 µM: 786-0 renal | A498 renal | A549 NSCLC | ACHN renal | BT-549 breast | CAKI-1 renal | CCRF-CEM leukemia | COLO 205 colon | DU-145 prostate | EKVX NSCLC | HCC-2998 colon | HCT-116 colon | HCT-15 colon | HL-60(TB) leukemia | HOP-62 NSCLC | HOP-92 NSCLC | HT29 colon | IGROV1 ovarian | K-562 leukemia | KM12 colon | LOX IMVI melanoma | M14 melanoma | MALME-3M melanoma | MCF7 breast | MDA-MB-231 breast | MDA-MB-435 | MDA-N | MOLT-4 leukemia | NCI-H226 lung | NCI-H23 lung | NCI-H460 lung | NCI-H522 lung | NCI/ADR-RES ovarian | OVCAR-3 ovarian | OVCAR-4 ovarian | OVCAR-5 ovarian | OVCAR-8 ovarian | PC-3 prostate | RPMI-8226 leukemia | RXF 393 renal | SF-268 CNS | SF-295 CNS | SF-539 CNS | SK-MEL-2 melanoma | SK-MEL-28 melanoma | SK-MEL-5 melanoma | SK-OV-3 ovarian | SN12C renal | SNB-19 CNS | SNB-75 CNS | SR leukemia | SW-620 colon | T-47D breast | TK-10 renal | U251 CNS | UACC-257 melanoma | UACC-62 melanoma | UO-31 renal
